Like-named read-outs stand apart in the source and are kept apart here. Bounds are passed on as bounds.

13 compounds from US4077981A, “Certain 1-alkyl-2-dichlorophenyliminopyrrolidines” (Bayer Aktiengesellschaft, priority 1968, dated 1978) can be followed below.

Data set [1] has as its system Boophilus microplus, Biarra strain (resistant). Description: In-vitro test for ovicidal effect on ticks (Biarra strain). The conditions noted are these: for Ovicidal effect: 50% inhibition with the stated concentration of active compound: Table 4, concentration giving 50% inhibition; for Ovicidal effect: 50% inhibition with the stated concentration of active compound / Ovicidal effect: 100% inhibition with the stated concentration of active compound: ovicidal only (marked not adulticidal); for Ovicidal effect: 100% inhibition with the stated concentration of active compound: Table 4, concentration giving 100% inhibition. Here is the method:
(§1) In-vitro Test for Ovicidal Effect on Ticks
The emulsion concentrate so obtained is diluted with water to the application concentration desired in each case.
After immersion of, in each case, 10 female specimens of the various strains of ticks, the individual ticks are transferred to plastic dishes, the bottom of each of which is covered with a disc of filter paper.

A further data set relates to Boophilus, Biarra strain. Description: In-vitro test for adulticidal effect on ticks (24 hours). Further details: species or system Boophilus microplus. The conditions noted are these: Table 4, after 24 hours, at the concentrations stated. Here is the method:
In addition, the adulticidal effectiveness of the preparation of the given active compound after 24 hours is determined by ascertaining the voluntary movement of limbs and bodies of the immersed adult ticks after stimulation with a fine needle compared with the voluntary movement of limbs and bodies of the untreated adult ticks. The effectiveness is stated in %, 100% meaning that no movements of any kind of the limbs and bodies were any longer detectable, and 0% signifying that the ticks moved limbs and bodies in normal manner.

Data set [2] relates to Boophilus microplus, Ridgeland strain (resistant). Description: In-vitro test for ovicidal effect on ticks (Ridgeland strain). The conditions noted are these: for Ovicidal effect: 100% inhibition with the stated concentration of active compound / Ovicidal effect: >50% inhibition with the stated concentration of active compound: Table 1b, * Ridgeland strain; for Ovicidal effect: 100% inhibition with the stated concentration of active compound: concentration giving 100% inhibition; for Ovicidal effect: >50% inhibition with the stated concentration of active compound: concentration giving >50% inhibition. Here is the method: as §1
(§2) 3 g of the particular active compound are mixed with 7 g of a mixture of equal parts by weight of ethyleneglycol monomethyl ether and nonylphenyl polyglycol ether. The emulsion concentrate so obtained is diluted with water to the application concentration desired in each case.
(§3) Adult, fully engorged female ticks of the species Boophilus microplus (resistant) are immersed for 1 minute in this preparation of the given active compound. After immersion of, in each case, 10 female specimens of the various strains of ticks, the individual ticks are transferred to plastic dishes, the bottom of each of which is covered with a disc of filter paper. As a control, similar ticks of a normally sensitive strain are treated in exactly the same manner.
(§4) After 35 days, the effectiveness of the preparation of the given active compound is determined by ascertaining the inhibition of the depositing of fertile eggs compared with the egg depositing of untreated control ticks. The effect is stated in %, 100% meaning that fertile eggs ceased to be deposited, and 0% signifying that the ticks have deposited eggs in normal manner like the untreated control ticks.

The nature of another data set: Toxicity on the mouse. Particulars: in vivo, read-out: Toxicity (highest survived dose). Here is the method:
The toxicity determined on the mouse is: orally, 500 mg/kg; subcutaneously,500 mg/kg (highest survived doses).

Data set [3] deals with Boophilus microplus, normally sensitive strain. The data set can be described thus: In-vitro test for ovicidal effect on ticks (normally sensitive strain). Particulars: Rhipicephalus microplus, 840 h, after 35 days, read-out: Inhibition of egg depositing. Here is the method: as §1, §2, §3, §4
Data set [4] deals with Boophilus microplus, Biarra strain. The data set can be described thus: In-vivo test against ticks on cattle. Further details: species or system Boophilus microplus (on cattle). Here is the method:
In-vivo test against ticks on cattle
3 parts of the particular active compound are mixed with 7 parts of a mixture of equal parts by weight of ethyleneglycol monomethyl ether and nonylphenyl polyglycol ether. The emulsion concentrate so obtained is diluted with water to the application concentration desired in each case.
Cattle which have been infected (12 times at intervals of 2 days) with resistant larvae of ticks of the species Boophilus microplus, Biarra strain, are sprayed on the 24th day after the first infection with the preparation of the given active compound so obtained.
The effect of the preparation of the given active compound is determined by ascertaining the number of adult female ticks which have reached development on the treated cattle and later lay viable eggs. This number is compared with the number of adult femal ticks which have reached development on untreated cattle.
As a measure of the intensity of the infestation before treatment, there is used the number of adult females which reach development in the case of the treated and untreated animals in the last three days before the time of treatment.

In the case of `C=CCN1CCCC1=Nc1cc(Cl)ccc1Cl`, in data set [1], the “Ovicidal effect: 50% inhibition with the stated concentration of active compound” value (shortened to “Ovicidal effect: 50% inhibition”) was determined as 0.03 % by weight and the “Ovicidal effect: 100% inhibition with the stated concentration of active compound” value (shortened to “Ovicidal effect: 100% inhibition”) is given as 0.1 % by weight. In addition, in the data set on Boophilus, Biarra strain, the Adulticidal effect result is “not adulticidal”.

On to `C=CCN1CCCC1=Nc1cccc(Cl)c1Cl`, for which, in data set [1], the “Ovicidal effect: 50% inhibition” value was 0.008 % by weight and the “Ovicidal effect: 100% inhibition” value was found to be 0.01 % by weight. The Adulticidal effect result in the data set with Boophilus, Biarra strain was “not adulticidal”.

Regarding `CCCCN1CCCC1=Nc1ccc(F)cc1Cl`, in data set [1], the “Ovicidal effect: 50% inhibition” value is 0.01 % by weight and the “Ovicidal effect: 100% inhibition” value is on record as 0.03 % by weight. Besides, the Adulticidal effect entry with Boophilus, Biarra strain is reported as “not adulticidal”.

Regarding `C=CCN1CCCC1=Nc1ccc(F)cc1Cl`, in data set [1], the “Ovicidal effect: 50% inhibition” value was found to be 0.03 % by weight and the “Ovicidal effect: 100% inhibition” value came out at 0.1 % by weight. In addition, in the data set on Boophilus, Biarra strain, the Adulticidal effect result is given as “not adulticidal”.

In the case of `CCCN1CCCC1=Nc1ccc(F)cc1Cl`, in data set [1], the “Ovicidal effect: 50% inhibition” value is on record as 0.03 % by weight and the “Ovicidal effect: 100% inhibition” value is on record as 0.1 % by weight. The Adulticidal effect result with Boophilus, Biarra strain is recorded as “not adulticidal”.

On to `C=CCN1CCCC1=Nc1cc(Cl)c(Cl)cc1Cl`, for which, in data set [1], the “Ovicidal effect: 50% inhibition” value worked out at 0.02 % by weight and the “Ovicidal effect: 100% inhibition” value was 0.03 % by weight. For the same compound, in the data set with Boophilus, Biarra strain, the Adulticidal effect result is listed as “not adulticidal”.

As for `CC=CCN1CCCC1=Nc1ccc(Cl)cc1Cl`, in data set [1], the “Ovicidal effect: 50% inhibition” value is 0.03 % by weight and the “Ovicidal effect: 100% inhibition” value was determined as 0.01 % by weight. In the data set on Boophilus, Biarra strain, the Adulticidal effect entry is “not adulticidal”.

For `CC=CCN1CCCC1=Nc1ccc(Br)cc1CC`, in data set [1], the “Ovicidal effect: 50% inhibition” value turned out to be 0.05 % by weight and the “Ovicidal effect: 100% inhibition” value amounted to 0.1 % by weight. In addition, the Adulticidal effect entry in the data set on Boophilus, Biarra strain is “not adulticidal”.

`C=CCN1CCCC1=Nc1ccc(Cl)cc1C`: in data set [1], the “Ovicidal effect: 50% inhibition” value was found to be 0.02 % by weight and the “Ovicidal effect: 100% inhibition” value is given as 0.03 % by weight. Further, in the data set on Boophilus, Biarra strain, the Adulticidal effect entry is reported as “not adulticidal”.

Turning to `CCCN1CCCC1=Nc1ccc(Cl)cc1C` [Compound 211], in data set [2], the “Ovicidal effect: 100% inhibition” value was 0.1 % by weight and the “Ovicidal effect: >50% inhibition with the stated concentration of active compound” value was determined as 0.03 % by weight.

As to `Cc1cc(Cl)ccc1N=C1CCCN1C(C)C` [Compound 241], in data set [2], the “Ovicidal effect: 100% inhibition” value was 1.0 % by weight and the “Ovicidal effect: >50% inhibition with the stated concentration of active compound” value was 0.3 % by weight.

`C=CCN1CCCC1=Nc1ccc(Cl)cc1Cl` [Example 6, 1-(α-allyl)-2-(2',4'-dichloro-phenylimino)-pyrrolidine]: the MTD amounted to 500 mg/kg in “Toxicity on the mouse” (po, orally) and 500 mg/kg in the data set “Toxicity on the mouse” (sc, subcutaneously).

The inhibition is the relative decrease from the control value, in per cent. Consider `CN1CCCC1=Nc1ccc(Cl)cc1Cl` [l1, 1-methyl-2-(2',4'-dichloro-phenylimino)-pyrrolidine], for which the inhibition at 0.01 % strength worked out at 0% in data set [2] (Rhipicephalus microplus, 840 h, 0.01% active compound, Ridgeland strain, resistant, after 35 days, read-out: Inhibition of egg depositing); 0% in data set [1] (Rhipicephalus microplus, 840 h, 0.01% active compound, resistant, after 35 days, read-out: Inhibition of egg depositing); 0% in data set [3] (0.01% active compound). Besides, the inhibition at 0.03 % strength in data set [2] (Rhipicephalus microplus, 840 h, 0.03% active compound, Ridgeland strain, resistant, after 35 days, read-out: Inhibition of egg depositing) was above 50%; in data set [1] (Rhipicephalus microplus, 840 h, 0.03% active compound, resistant, after 35 days, read-out: Inhibition of egg depositing) it was above 50%; in data set [3] (0.03% active compound), above 50%. Further, the inhibition at 0.1 % strength stood at 100% in data set [2] (Rhipicephalus microplus, 840 h, 0.1% active compound, Ridgeland strain, resistant, after 35 days, read-out: Inhibition of egg depositing); 100% in data set [1] (Rhipicephalus microplus, 840 h, 0.1% active compound, resistant, after 35 days, read-out: Inhibition of egg depositing); 100% in data set [3] (0.1% active compound). Besides, the inhibition at 0.3 % strength is 100% in data set [2] (Rhipicephalus microplus, 840 h, 0.3% active compound, Ridgeland strain, resistant, after 35 days, read-out: Inhibition of egg depositing); 100% in data set [1] (Rhipicephalus microplus, 840 h, 0.3% active compound, resistant, after 35 days, read-out: Inhibition of egg depositing); 100% in data set [3] (0.3% active compound). In addition, the inhibition at 1 % strength was 100% in data set [2] (Rhipicephalus microplus, 840 h, 1.0% active compound, Ridgeland strain, resistant, after 35 days, read-out: Inhibition of egg depositing); 100% in data set [1] (Rhipicephalus microplus, 840 h, 1.0% active compound, resistant, after 35 days, read-out: Inhibition of egg depositing); 100% in data set [3] (1.0% active compound). In addition, the “Number of female adult ticks which reach development on the cattle” value stood at 1 in data set [4] (0.3%, days after treatment +4+5+6); 119 in data set [4] (0.3%, days after treatment +7+8+9); 72 in data set [4] (0.4%, days after treatment +7+8+9); 1 in data set [4] (0.5%, days after treatment +7+8+9); 7 in data set [4] (0.5%, days after treatment +10+11+12); 3 in data set [4] (0.5%, days after treatment +13+14+15). Also, the “Number of female adult ticks which reach development on the cattle” value in data set [4] (0.5%, days after treatment +16+17+18) is listed as 1. Further, the “Total number of female adult ticks which reach development on the cattle” value in data set [4] (0.5%, total 1-21 days) stood at 12.
